Measured values reported in patent US12534469B2 (CHILDREN'S HOSPITAL MEDICAL CENTER, priority 2020, dated 2026).

Columns and labels:
Assay type in all cases: biochemical
IRAK1 = biological target: T1, IRAK1 (Homo sapiens, UniProt P51617); assay: RBC HotSpot Kinase Assay, IRAK1
T1 construct: purchased Reaction Biology (RBC HotSpot Kinase Assay)
Source text: (§1) This assay uses the isolated kinase enzyme. This assay is very useful for determining competition of the inhibitor for ATP and/or substrates and for measuring the kinetics of enzyme inhibition. […] Unlike kinase binding assays that measure competition for ATP, the HotSpot Kinase Assay is a functional assay that measures catalytic activity; as such it measures relative functional potency regardless of the mechanism of enzyme inhibition. This assay uses the form of the various enzymes that are easiest to express, which may not necessarily be the form of the enzyme that exist in the cell. (Sometimes the carboxy terminus has been truncated to aid in expression, or, if it is a receptor kinase, the enzyme itself is isolated from the other parts of the receptor that are involved in regulating kinase activity.)
(§2) The reagent used was as follows: Base Reaction buffer; 20 mM Hepes (pH 7.5), 10 mM MgCl2, 1 mM EGTA, 0.01% Brij35, 0.02 mg/ml BSA, 0.1 mM Na3VO4, 2 mM DTT, 1% DMSO. Required cofactors were added individually to each kinase reaction.
(§3) The reaction procedure was as follows: • 1) Substrates were prepared in freshly prepared Reaction Buffer. • 2) Any required cofactors were delivered to the substrate solution above. • 3) Kinase was delivered into the substrate solution and gently mixed. • 4) Compounds were delivered in 100% DMSO into the kinase reaction mixture by Acoustic technology (Echo550; nanoliter range), followed by incubation for 20 min at room temp. • 5) ^33P-ATP was delivered into the reaction mixture to initiate the reaction. • 6) The mixture was incubated for 2 hours at room temperature. • 7) Kinase activity was detected by P81 filter-binding method.

FLT3 = biological target: T2, FLT3 (Homo sapiens, UniProt P36888); assay: RBC HotSpot Kinase Assay, FLT3
T2 construct: purchased Reaction Biology (RBC HotSpot Kinase Assay)
T2 sequence (P36888 564-958 limits assumed): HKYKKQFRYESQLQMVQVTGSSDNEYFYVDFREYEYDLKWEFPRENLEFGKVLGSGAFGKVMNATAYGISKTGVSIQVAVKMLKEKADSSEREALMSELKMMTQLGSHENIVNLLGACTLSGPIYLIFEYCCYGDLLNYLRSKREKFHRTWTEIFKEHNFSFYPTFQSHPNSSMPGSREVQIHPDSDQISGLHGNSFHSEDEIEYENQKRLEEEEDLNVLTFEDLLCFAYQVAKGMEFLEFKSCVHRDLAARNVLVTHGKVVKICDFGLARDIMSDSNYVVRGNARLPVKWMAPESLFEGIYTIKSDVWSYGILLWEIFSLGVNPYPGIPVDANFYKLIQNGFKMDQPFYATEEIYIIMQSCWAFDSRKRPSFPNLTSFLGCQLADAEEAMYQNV
Source text: as §1, §2, §3

IRAK4 = biological target: T3, IRAK4 (Homo sapiens, UniProt Q9NWZ3); assay: RBC HotSpot Kinase Assay, IRAK4; parameters: purchased Reaction Biology (RBC HotSpot Kinase Assay)
T3 sequence (Q9NWZ3 1-460): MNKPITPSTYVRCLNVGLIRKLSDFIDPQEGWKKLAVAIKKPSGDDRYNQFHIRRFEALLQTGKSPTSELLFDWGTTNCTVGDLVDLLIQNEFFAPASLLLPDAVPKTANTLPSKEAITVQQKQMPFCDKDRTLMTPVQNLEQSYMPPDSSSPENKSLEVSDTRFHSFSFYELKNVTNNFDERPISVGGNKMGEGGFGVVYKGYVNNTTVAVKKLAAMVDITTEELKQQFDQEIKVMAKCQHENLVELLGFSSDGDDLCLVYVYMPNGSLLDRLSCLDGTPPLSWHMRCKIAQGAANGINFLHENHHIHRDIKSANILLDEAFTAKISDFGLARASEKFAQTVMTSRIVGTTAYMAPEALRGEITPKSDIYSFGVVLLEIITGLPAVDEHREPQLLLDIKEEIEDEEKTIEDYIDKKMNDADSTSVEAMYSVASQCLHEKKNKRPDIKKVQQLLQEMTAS
Source text: as §1, §2, §3

T1 sequence (P51617 whole entry): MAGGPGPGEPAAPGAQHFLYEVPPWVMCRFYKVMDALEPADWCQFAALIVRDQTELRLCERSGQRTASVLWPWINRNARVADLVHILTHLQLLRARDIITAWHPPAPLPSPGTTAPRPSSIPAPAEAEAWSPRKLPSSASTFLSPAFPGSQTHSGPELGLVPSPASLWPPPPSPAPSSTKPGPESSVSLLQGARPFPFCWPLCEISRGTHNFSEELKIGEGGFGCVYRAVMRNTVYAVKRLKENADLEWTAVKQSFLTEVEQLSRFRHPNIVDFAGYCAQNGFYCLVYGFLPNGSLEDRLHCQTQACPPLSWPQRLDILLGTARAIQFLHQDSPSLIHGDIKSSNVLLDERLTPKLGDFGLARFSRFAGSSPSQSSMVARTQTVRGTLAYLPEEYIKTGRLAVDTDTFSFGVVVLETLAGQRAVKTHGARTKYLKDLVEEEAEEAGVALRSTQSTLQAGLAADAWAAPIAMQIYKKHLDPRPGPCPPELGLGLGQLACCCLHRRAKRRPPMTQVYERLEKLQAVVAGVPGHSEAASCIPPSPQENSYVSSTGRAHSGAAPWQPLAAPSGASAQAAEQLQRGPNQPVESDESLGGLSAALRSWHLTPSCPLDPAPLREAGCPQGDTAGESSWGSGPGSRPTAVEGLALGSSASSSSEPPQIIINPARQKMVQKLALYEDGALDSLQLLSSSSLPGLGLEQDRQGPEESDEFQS

SMILES | IC50 (IRAK1) [nM] | IC50 (FLT3) [nM] | IC50 (IRAK4) [nM]
c1ccc(-n2cc(-c3ccc4ncc(-c5cccc(NC6CC7(CCNC7)C6)n5)n4n3)cn2)cc1 (stereo not drawn) [Compound 40, N-(6-(6-(1-phenyl-1H-pyrazol-4-yl)imidazo[1,2-b]pyridazin-3-yl)pyridin-2-yl)-6-azaspiro[3.4]octan-2-amine] | > 10000 | 9 | 1300
c1cc(NC2CC3(CCNC3)C2)nc(-c2cnc3ccc(-c4cnn(C5CCOCC5)c4)nn23)c1 (stereo not drawn) [Compound 41, N-(6-(6-(1-(tetrahydro-2H-pyran-4-yl)-1H-pyrazol-4-yl)imidazo[1,2-b]pyridazin-3-yl)pyridin-2-yl)-6-azaspiro[3.4]octan-2-amine] | > 10000 | 18 | 3480
Cn1cc(-c2ccc3ncc(-c4cccc(NC5CC6(CCNC6)C5)n4)n3n2)cn1 (stereo not drawn) [Compound 42, N-(6-(6-(1-methyl-1H-pyrazol-4-yl)imidazo[1,2-b]pyridazin-3-yl)pyridin-2-yl)-6-azaspiro[3.4]octan-2-amine] | 2220 | 3 | 113
c1cc(NC2CC3(CCNC3)C2)nc(-c2cnc3ccc(-c4cnn(C5CNC5)c4)nn23)c1 (stereo not drawn) [Compound 44, N-(6-(6-(1-(azetidin-3-yl)-1H-pyrazol-4-yl)imidazo[1,2-b]pyridazin-3-yl)pyridin-2-yl)-6-azaspiro[3.4]octan-2-amine] | > 10000 | 4 | 4340
CC(C)n1cc(-c2ccc3ncc(-c4cccc(NC5CCC6(CNC6)C5)n4)n3n2)cn1 (stereo not drawn) [Compound 46, N-(6-(6-(1-isopropyl-1H-pyrazol-4-yl)imidazo[1,2-b]pyridazin-3-yl)pyridin-2-yl)-2-azaspiro[3.4]octan-6-amine] | 2180 | 6 | 985
c1ccc(-n2cc(-c3ccc4ncc(-c5cccc(NC6CCC7(CNC7)C6)n5)n4n3)cn2)cc1 (stereo not drawn) [Compound 47, N-(6-(6-(1-phenyl-1H-pyrazol-4-yl)imidazo[1,2-b]pyridazin-3-yl)pyridin-2-yl)-2-azaspiro[3.4]octan-6-amine] | > 10000 | 19 | 3200
c1cc(NC2CCC3(CNC3)C2)nc(-c2cnc3ccc(-c4cnn(C5CCOCC5)c4)nn23)c1 (stereo not drawn) [Compound 48, N-(6-(6-(1-(tetrahydro-2H-pyran-4-yl)-1H-pyrazol-4-yl)imidazo[1,2-b]pyridazin-3-yl)pyridin-2-yl)-2-azaspiro[3.4]octan-6-amine] | > 10000 | 12 | 4080
Fc1cc(F)c2c(-c3ccc4ncc(-c5cccc(NC6CNCC6(F)F)n5)n4n3)cnn2c1 (stereo not drawn) [Compound 55, 6-(6-(4,6-difluoropyrazolo[1,5-a]pyridin-3-yl)imidazo[1,2-b]pyridazin-3-yl)-N-(4,4-difluoropyrrolidin-3-yl)pyridin-2-amine] | 6840 | 16 | 113
F[C@H]1CNC[C@@H]1Nc1cccc(-c2cnc3ccc(C4CC4)nn23)n1 [Compound 69, 6-(6-cyclopropylimidazo[1,2-b]pyridazin-3-yl)-N-((3S,4S)-4-fluoropyrrolidin-3-yl)pyridin-2-amine] | 3970 | 3 | 45
O[C@H]1CNC[C@@H]1Nc1cccc(-c2cnc3ccc(C4CC4)nn23)n1 [Compound 70, (3S,4S)-4-((6-(6-cyclopropylimidazo[1,2-b]pyridazin-3-yl)pyridin-2-yl)amino)pyrrolidin-3-ol] | 5190 | 18 | 586
FC(F)(F)[C@H]1CNC[C@@H]1Nc1cccc(-c2cnc3ccc(C4CC4)nn23)n1 [Compound 71, 6-(6-cyclopropylimidazo[1,2-b]pyridazin-3-yl)-N-((3R,4S)-4-(trifluoromethyl)pyrrolidin-3-yl)pyridin-2-amine] | 2650 | 0.8 | 36

Now those with a lower IC50 (IRAK1), led by results:

IC50 (IRAK1) [nM] | IC50 (FLT3) [nM] | IC50 (IRAK4) [nM] | SMILES
37 | < 0.5 | 8 | c1cc(NC2CCC3(CNC3)C2)nc(-c2cnc3ccc(-c4cn[nH]c4)nn23)c1 (stereo not drawn) [Compound 45, N-(6-(6-(1H-pyrazol-4-yl)imidazo[1,2-b]pyridazin-3-yl)pyridin-2-yl)-2-azaspiro[3.4]octan-6-amine]
1200 | 2 | 204 | Cn1cc(-c2ccc3ncc(-c4cccc(NC5CCC6(CNC6)C5)n4)n3n2)cn1 (stereo not drawn) [Compound 49, N-(6-(6-(1-methyl-1H-pyrazol-4-yl)imidazo[1,2-b]pyridazin-3-yl)pyridin-2-yl)-2-azaspiro[3.4]octan-6-amine]
1060 | 8 | 2670 | Cc1oncc1-c1ccc2ncc(-c3cccc(NC4CCC5(CNC5)C4)n3)n2n1 (stereo not drawn) [Compound 50, N-(6-(6-(5-methylisoxazol-4-yl)imidazo[1,2-b]pyridazin-3-yl)pyridin-2-yl)-2-azaspiro[3.4]octan-6-amine]
1690 | < 0.5 | 8 | FC1(F)CNCC1Nc1cccc(-c2cnc3ccc(-c4cnn5ncccc45)nn23)n1 (stereo not drawn) [Compound 54, N-(4,4-difluoropyrrolidin-3-yl)-6-(6-(pyrazolo[1,5-b]pyridazin-3-yl)imidazo[1,2-b]pyridazin-3-yl)pyridin-2-amine]
80 | 0.8 | 1 | FC1(F)CNCC1Nc1cccc(-c2cnc3ccc(-c4cnn5ccccc45)nn23)n1 (stereo not drawn) [Compound 56, N-(4,4-difluoropyrrolidin-3-yl)-6-(6-(pyrazolo[1,5-a]pyridin-3-yl)imidazo[1,2-b]pyridazin-3-yl)pyridin-2-amine]
621 | 2 | 12 | FC1(F)CNCC1Nc1cccc(-c2cnc3ccc(-c4cnn5c4CCCC5)nn23)n1 (stereo not drawn) [Compound 59, N-(4,4-difluoropyrrolidin-3-yl)-6-(6-(4,5,6,7-tetrahydropyrazolo[1,5-a]pyridin-3-yl)imidazo[1,2-b]pyridazin-3-yl)pyridin-2-amine]
274 | 2 | 4 | CC1(C)Cc2c(-c3ccc4ncc(-c5cccc(NC6CNCC6(F)F)n5)n4n3)cnn2C1 (stereo not drawn) [Compound 60, N-(4,4-difluoropyrrolidin-3-yl)-6-(6-(5,5-dimethyl-5,6-dihydro-4H-pyrrolo[1,2-b]pyrazol-3-yl)imidazo[1,2-b]pyridazin-3-yl)pyridin-2-amine]
349 | 1 | 26 | c1cc(NC2CC3(CNC3)C2)nc(-c2cnc3ccc(-c4cnn5ccccc45)nn23)c1 [Compound 61, N-(6-(6-(pyrazolo[1,5-a]pyridin-3-yl)imidazo[1,2-b]pyridazin-3-yl)pyridin-2-yl)-2-azaspiro[3.3]heptan-6-amine]
403 | < 0.5 | 16 | c1cc(NC2CC3(CCNC3)C2)nc(-c2cnc3ccc(-c4cnn5ccccc45)nn23)c1 (stereo not drawn) [Compound 62, N-(6-(6-(pyrazolo[1,5-a]pyridin-3-yl)imidazo[1,2-b]pyridazin-3-yl)pyridin-2-yl)-6-azaspiro[3.4]octan-2-amine]
269 | < 0.5 | 28 | c1cc(NC2CCC3(CNC3)C2)nc(-c2cnc3ccc(-c4cnn5ccccc45)nn23)c1 (stereo not drawn) [Compound 63, N-(6-(6-(pyrazolo[1,5-a]pyridin-3-yl)imidazo[1,2-b]pyridazin-3-yl)pyridin-2-yl)-2-azaspiro[3.4]octan-6-amine]
